# Source: PubChem BioAssay AID1845195 (Molecular Pharmacology Branch, DTP, NCI, 2023)
# pIC50: −log10 of the molar value.
# Tested on: 156681-154-R-J1 tumor spheroid viability
# Experiment: Anticancer human tumor 156681-154-R-J1 patient-derived melanoma cell line growth inhibition
# Details: spheroids with HUVEC and MSC; for pIC50: curve of first compound; for viability, T/C: stronger effect = lower value
# Procedure, shortened: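 Complex spheroids of malignant cells with endothelial cells and mesenchymal stem cells; agents alone or combined, from near clinical Cmax (or 10 microM if unknown) down in half-log steps, 0.25% DMSO final.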
# [1] = second compound 30 pM, first compound 0.00949 µM
# [2] = second compound 30 pM, first compound 0.03 µM
# [3] = second compound 30 pM, first compound 0.0949 µM
# [4] = second compound 30 pM, first compound 0.3 µM
# [5] = second compound 30 pM, first compound 0.949 µM
# [6] = second compound 30 pM, first compound 3 µM
# [7] = second compound 94.9 pM, first compound 0.00949 µM
# [8] = second compound 94.9 pM, first compound 0.03 µM
# [9] = second compound 94.9 pM, first compound 0.0949 µM
# [10] = second compound 94.9 pM, first compound 0.3 µM
# [11] = second compound 94.9 pM, first compound 0.949 µM
# [12] = second compound 94.9 pM, first compound 3 µM
# [13] = second compound 0.0003 µM, first compound 0.00949 µM
# [14] = second compound 0.0003 µM, first compound 0.03 µM
# [15] = second compound 0.0003 µM, first compound 0.0949 µM
# [16] = second compound 0.0003 µM, first compound 0.3 µM
# [17] = second compound 0.0003 µM, first compound 0.949 µM
# [18] = second compound 0.0003 µM, first compound 3 µM
# [19] = second compound 0.000949 µM, first compound 0.00949 µM
# [20] = second compound 0.000949 µM, first compound 0.03 µM
# [21] = second compound 0.000949 µM, first compound 0.0949 µM
# [22] = second compound 0.000949 µM, first compound 0.3 µM
# [23] = second compound 0.000949 µM, first compound 0.949 µM
# [24] = second compound 0.000949 µM, first compound 3 µM
# [25] = second compound 0.003 µM, first compound 0.00949 µM
# [26] = second compound 0.003 µM, first compound 0.03 µM
# [27] = second compound 0.003 µM, first compound 0.0949 µM
# [28] = second compound 0.003 µM, first compound 0.3 µM
# [29] = second compound 0.003 µM, first compound 0.949 µM
# [30] = second compound 0.003 µM, first compound 3 µM
# 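Also: spheroids exposed to compounds for 7 days before readout.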
# 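For viability, T/C in this document: percent of vehicle control viability where 100% = DMSO-treated spheroids.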
SMILES,pIC50 (second compound 30 pM),pIC50 (second compound 94.9 pM),pIC50 (second compound 0.0003 µM),pIC50 (second compound 0.000949 µM),pIC50 (second compound 0.003 µM),"viability, T/C [3] [%]","viability, T/C [4] [%]","viability, T/C [5] [%]","viability, T/C [6] [%]","viability, T/C [9] [%]","viability, T/C [10] [%]","viability, T/C [11] [%]","viability, T/C [12] [%]","viability, T/C [15] [%]","viability, T/C [16] [%]","viability, T/C [17] [%]","viability, T/C [18] [%]","viability, T/C [21] [%]","viability, T/C [22] [%]","viability, T/C [23] [%]",other results
CNCc1ccc(-c2cc(-c3nc(-c4ccc(S(=O)(=O)C(C)C)cc4)cnc3N)on2)cc1 + COc1cc2c(cc1O)CCNC21CSC2c3c(OC(C)=O)c(C)c4c(c3C(COC1=O)N1C(O)C3Cc5cc(C)c(OC)c(O)c5C(C21)N3C)OCO4,5.95,6.06,6.24,> 8.02,> 8.02,99,85.2,53.5,17,101,77.1,49.3,2.05,90.4,69.1,35.4,1.71,4.37,3.55,1.04,"viability, T/C [1]: 119%; viability, T/C [2]: 103%; viability, T/C [7]: 112%; viability, T/C [8]: 113%; viability, T/C [13]: 90.6%; viability, T/C [14]: 100%; viability, T/C [19]: 3.5%; viability, T/C [20]: 5.91%; viability, T/C [24]: 0.15%; viability, T/C [25]: 0.16%; viability, T/C [26]: 0.17%; viability, T/C [27]: 0.17%; viability, T/C [28]: 0.12%; viability, T/C [29]: 0.12%; viability, T/C [30]: 0.24%"
Cc1sc2c(c1C)C(c1ccc(Cl)cc1)=NC(CC(=O)Nc1ccc(O)cc1)c1nnc(C)n1-2 (stereo not given) + COc1cc2c(cc1O)CCNC21CSC2c3c(OC(C)=O)c(C)c4c(c3C(COC1=O)N1C(O)C3Cc5cc(C)c(OC)c(O)c5C(C21)N3C)OCO4,< 5.52,5.69,6.71,> 8.02,> 8.02,103,109,68.3,61.8,95.8,85.5,82.5,34.7,64.9,45.2,15.7,9.14,2.97,1.78,0.17,"viability, T/C [1]: 104%; viability, T/C [2]: 92.1%; viability, T/C [7]: 108%; viability, T/C [8]: 97.1%; viability, T/C [13]: 90.7%; viability, T/C [14]: 76.7%; viability, T/C [19]: 1.73%; viability, T/C [20]: 3.32%; viability, T/C [24]: 0.15%; viability, T/C [25]: 0.14%; viability, T/C [26]: 0.17%; viability, T/C [27]: 0.12%; viability, T/C [28]: 0.12%; viability, T/C [29]: 0.12%; viability, T/C [30]: 0.21%"
Cn1ncnc1[C@H]1c2n[nH]c(=O)c3cc(F)cc(c23)N[C@@H]1c1ccc(F)cc1 + COc1cc2c(cc1O)CCNC21CSC2c3c(OC(C)=O)c(C)c4c(c3C(COC1=O)N1C(O)C3Cc5cc(C)c(OC)c(O)c5C(C21)N3C)OCO4,5.84,6.16,7.01,> 8.02,> 8.02,97.9,72.4,70.9,19.1,91.9,73.3,40.8,14,51,36.6,15.2,11.3,4.05,2.68,1,"viability, T/C [1]: 82%; viability, T/C [2]: 91.7%; viability, T/C [7]: 97.5%; viability, T/C [8]: 80.7%; viability, T/C [13]: 48.5%; viability, T/C [14]: 53.7%; viability, T/C [19]: 10%; viability, T/C [20]: 4.38%; viability, T/C [24]: 0.14%; viability, T/C [25]: 0.15%; viability, T/C [26]: 0.14%; viability, T/C [27]: 0.55%; viability, T/C [28]: 0.12%; viability, T/C [29]: 0.13%; viability, T/C [30]: 0.18%"
O=C(c1cc(Cc2n[nH]c(=O)c3ccccc23)ccc1F)N1CCN(C(=O)C2CC2)CC1 + COc1cc2c(cc1O)CCNC21CSC2c3c(OC(C)=O)c(C)c4c(c3C(COC1=O)N1C(O)C3Cc5cc(C)c(OC)c(O)c5C(C21)N3C)OCO4,< 4.52,< 4.52,5.23,> 7.02,> 7.02,83.5,77,73.4,72.2,82.1,85.9,82.7,66.3,69.8,68.6,64.1,66.8,4.61,4.05,3.32,"viability, T/C (second compound 30 pM, first compound 9.49 µM): 65.3%; viability, T/C (second compound 30 pM, first compound 30 µM): 60.1%; viability, T/C (second compound 94.9 pM, first compound 9.49 µM): 69%; viability, T/C (second compound 94.9 pM, first compound 30 µM): 53.5%; viability, T/C (second compound 0.0003 µM, first compound 9.49 µM): 37.8%; viability, T/C (second compound 0.0003 µM, first compound 30 µM): 21.2%; viability, T/C [24]: 4.15%; viability, T/C (second compound 0.000949 µM, first compound 9.49 µM): 0.45%; viability, T/C (second compound 0.000949 µM, first compound 30 µM): 0.13%; viability, T/C [27]: 0.12%; viability, T/C [28]: 0.12%; viability, T/C [29]: 0.1%; viability, T/C [30]: 0.11%; viability, T/C (second compound 0.003 µM, first compound 9.49 µM): 0.11%; viability, T/C (second compound 0.003 µM, first compound 30 µM): 0.17%"
